Several values for one entry are separate records, joined by “and”; a condition that tells them apart may be missing. Equal values may be shown once.
Tests used:
[1] = xn = mol fraction of the nth substance listed

CC(C)C(=O)O
viscosity [mPa·s]
Conditions	293.15 K	301.15 K	302.15 K	303.15 K	305.15 K	308.15 K	311.15 K	313.15 K	315.15 K
101 kPa	–	1.168	1.148	–	1.099	1.047	1.008	0.9841	0.9512
101.33 kPa	1.326	–	–	1.12	–	–	–	1.004	–

CCCCCCCCCC(=O)OC
100 kPa
Conditions	viscosity [mPa·s]
293.15 K	2.115
298.15 K	1.919
303.15 K	1.745
318.15 K	1.345
323.15 K	1.243

CCCCCCCCCCCCCCCC
Conditions	viscosity [mPa·s]
293.15 K, 100 kPa	3.408
293.15 K, 101 kPa	3.408
293.15 K, 102 kPa	3.48
293.2 K, 101.3 kPa	3.507
298.15 K, 101 kPa	3.002
303.15 K, 101 kPa	2.703
303.2 K, 101.3 kPa	2.78
308.15 K, 101.33 kPa	2.381
318.15 K, 100 kPa	1.996
318.15 K, 101 kPa	1.996
318.15 K, 101.33 kPa	1.92
318.16 K, 101 kPa	2.039
323.15 K, 102 kPa	1.85

CC[n+]1ccn(C)c1.COS(=O)(=O)[O-]
101 kPa
Conditions	viscosity
293.15 K	84.14 mPa·s
298.15 K	84.3 mPa·s and 68.5 mPa·s
303.15 K	68.7 mPa·s and 55.4 mPa·s and 57.93 mPa·s
308.15 K	56.7 mPa·s and 45.5 mPa·s
313.15 K	47.6 mPa·s and 37.9 mPa·s and 39.54 mPa·s
323.15 K	28.33 mPa·s

CC(=O)OCc1ccccc1 + Cc1ccc(C)cc1
viscosity [mPa·s], [1], 101 kPa
Conditions	x1 = 0.0917	x1 = 0.1773	x1 = 0.2764	x1 = 0.3701	x1 = 0.4679	x1 = 0.5689	x1 = 0.6717	x1 = 0.7678	x1 = 0.8698	x1 = 0.9473
303.15 K	0.602	0.645	0.716	0.792	0.891	1.005	1.134	1.267	1.421	1.549
313.15 K	0.537	0.571	0.624	0.681	0.76	0.85	0.937	1.036	1.179	1.273

CC(=O)OCc1ccccc1 + Cc1cccc(C)c1
viscosity [mPa·s], [1], 101 kPa
Conditions	x1 = 0.0925	x1 = 0.1766	x1 = 0.2746	x1 = 0.3691	x1 = 0.4674	x1 = 0.5665	x1 = 0.6703	x1 = 0.7681	x1 = 0.8773	x1 = 0.9356
303.15 K	0.593	0.638	0.712	0.79	0.884	0.996	1.125	1.257	1.436	1.535
313.15 K	0.528	0.576	0.634	0.679	0.751	0.837	0.942	1.05	1.177	1.245

CC(=O)OCc1ccccc1 + Cc1cccc(O)c1
[1], 313.15 K, 101.33 kPa
Conditions	viscosity [mPa·s]
x1 = 0.115	5.114
x1 = 0.272	3.917
x1 = 0.435	3.06
x1 = 0.62	2.337
x1 = 0.81	1.765

ClC(Cl)Cl + Cc1ccccc1
[1], 298.15 K
Conditions	viscosity [mPa·s]
101 kPa, x1 = 0.1361	0.5653
101 kPa, x1 = 0.2872	0.5753
101 kPa, x1 = 0.4067	0.5833
101 kPa, x1 = 0.554	0.5861
101 kPa, x1 = 0.6211	0.584
101 kPa, x1 = 0.6656	0.58
101 kPa, x1 = 0.8806	0.5593
101.33 kPa, x1 = 0.0912	0.5573
101.33 kPa, x1 = 0.1727	0.5608
101.33 kPa, x1 = 0.2562	0.5636
101.33 kPa, x1 = 0.3481	0.5661
101.33 kPa, x1 = 0.5471	0.5687
101.33 kPa, x1 = 0.6862	0.5638
101.33 kPa, x1 = 0.8428	0.5531
101.33 kPa, x1 = 0.9237	0.545

CC(=O)OCc1ccccc1 + Cc1ccccc1C
viscosity [mPa·s], [1], 101 kPa
Conditions	x1 = 0.0897	x1 = 0.1695	x1 = 0.2706	x1 = 0.3684	x1 = 0.4671	x1 = 0.562	x1 = 0.6623	x1 = 0.7598	x1 = 0.8617	x1 = 0.9299
303.15 K	0.751	0.802	0.873	0.957	1.047	1.142	1.252	1.361	1.478	1.563
313.15 K	0.671	0.72	0.783	0.845	0.909	0.976	1.054	1.135	1.224	1.285

O=[N+]([O-])[O-].[Na+] + N
[1], 293.15 K, 101 kPa
Conditions	viscosity [mPa·s]
x1 = 0.02	0.182
x1 = 0.039	0.225
x1 = 0.081	0.374

Cc1ccc(S(=O)(=O)[O-])cc1.O=C1CCC[NH+]1C1CCCCC1 + O
viscosity [mPa·s], [1], 101 kPa
Conditions	x1 = 0.002718	x1 = 0.008026	x1 = 0.01073
298.15 K	1.035	–	1.485
303.15 K	–	1.165	–

NCCCC(=O)O + O
viscosity, [1], 100 kPa
Conditions	x1 = 0.0004	x1 = 0.0007	x1 = 0.0008999	x1 = 0.001	x1 = 0.0018	x1 = 0.002695	x1 = 0.004484	x1 = 0.006266	x1 = 0.008927
298.15 K	–	–	0.905 mPa·s	–	–	0.935 mPa·s	0.963 mPa·s	0.991 mPa·s	1.03 mPa·s
308.15 K	0.723 mPa·s	0.728 mPa·s	0.732 mPa·s	0.731 mPa·s and 0.735 mPa·s	0.742 mPa·s	0.76 mPa·s	–	0.814 mPa·s	0.852 mPa·s
313.15 K	0.655 mPa·s	0.66 mPa·s	–	0.662 mPa·s and 0.666 mPa·s	0.672 mPa·s	–	–	–	–
318.15 K	0.599 mPa·s	0.603 mPa·s	0.605 mPa·s	0.605 mPa·s and 0.609 mPa·s	0.614 mPa·s	0.623 mPa·s	0.64 mPa·s	0.658 mPa·s	0.684 mPa·s

O=C(O)CCl + O
[1], 293.35 K, 101 kPa
Conditions	viscosity [mPa·s]
x1 = 0.01308	11070
x1 = 0.02204	12080
x1 = 0.02477	11950
x1 = 0.0251	11580
x1 = 0.03355	12540
x1 = 0.05294	15100
